Results reported in PubChem BioAssay AID256 (DTP/NCI, 2004).
Toxic doses and inconclusive results are not listed. Rule for the calls: active = survival T/C of 150% or more; inactive = T/C below 125% in these data.

Test system: CD2F1 mice, L1210 leukemia ip, survival T/C
Assay: NCI In Vivo Anticancer Drug Screen. Data for tumor model L1210 Leukemia (intraperitoneal) in CD2F1 (CDF1) mice
Details: higher = longer survival
Summary of the method: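 Compound-dosed mice with transplantable tumor versus matched vehicle controls; endpoint ratio T/C reported.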

[1] = endpoint: mean survival time, dose: 100.0 mg/kg/injection, schedule: Q04DX003 (ip), vehicle: saline with Tween-80
[2] = endpoint: mean survival time, dose: 200.0 mg/kg/injection, schedule: Q04DX003 (ip), vehicle: saline with Tween-80
[3] = endpoint: mean survival time, dose: 400.0 mg/kg/injection, schedule: Q04DX003 (ip), vehicle: saline with Tween-80
[4] = endpoint: mean survival time, dose: 100.0 mg/kg/injection, schedule: Q01DX009 (ip), vehicle: saline with Tween-80
[5] = endpoint: mean survival time, dose: 200.0 mg/kg/injection, schedule: Q01DX009 (ip), vehicle: saline with Tween-80
[6] = endpoint: mean survival time, dose: 400.0 mg/kg/injection, schedule: Q01DX009 (ip), vehicle: saline with Tween-80
[7] = endpoint: mean survival time, dose: 100.0 mg/kg/injection, schedule: Q04DX002 (ip), vehicle: saline with Tween-80
[8] = endpoint: mean survival time, dose: 200.0 mg/kg/injection, schedule: Q04DX002 (ip), vehicle: saline with Tween-80
[9] = endpoint: mean survival time, dose: 400.0 mg/kg/injection, schedule: Q04DX002 (ip), vehicle: saline with Tween-80
[10] = endpoint: mean survival time, dose: 100.0 mg/kg/injection, schedule: Q04DX003 (ip), vehicle: saline
[11] = endpoint: mean survival time, dose: 200.0 mg/kg/injection, schedule: Q04DX003 (ip), vehicle: saline
[12] = endpoint: mean survival time, dose: 400.0 mg/kg/injection, schedule: Q04DX003 (ip), vehicle: saline

Measured: T/C

N=C(N)c1ccc(OCCCCOc2ccc(NC(=O)Nc3ccc(S(=O)(=O)F)cc3Cl)cc2)cc1
inactive: endpoint: mean survival time, dose: 12.5 mg/kg/injection, schedule: Q01DX001 (ip), vehicle: saline with Tween-80 98 % of control | endpoint: mean survival time, dose: 25.0 mg/kg/injection, schedule: Q01DX001 (ip), vehicle: saline with Tween-80 98 % of control | endpoint: mean survival time, dose: 50.0 mg/kg/injection, schedule: Q01DX001 (ip), vehicle: saline with Tween-80 96 % of control

COC(=O)C1(C)CCCC2(C)C1CCC13C=C(C(C)C)C(CC1C(=O)O)CC23 (configuration not stated)
inactive: [1] 97 % of control | [2] 101 % of control | [3] 93 % of control

C/C=C/CC1(Cc2ccccc2)C(=O)NC(=S)NC1=O
inactive: endpoint: mean survival time, dose: 9.5 mg/kg/injection, schedule: Q01DX001 (ip), vehicle: other 108 % of control | endpoint: mean survival time, dose: 19.0 mg/kg/injection, schedule: Q01DX001 (ip), vehicle: other 111 % of control

ClCC1C(CCl)C2(Cl)C(Cl)=C(Cl)C1(Cl)C2(Cl)Cl (configuration not stated)
inactive: [4] 100 % of control | [1] 93 % of control | [5] 98 % of control | [2] 95 % of control | [6] 93 % of control | [3] 93 % of control

N#Cc1ccc(NCCO)cc1
inactive: [1] 89 % of control | [2] 101 % of control | [3] 91 % of control

COC(=O)C1=C(O)C(C(=O)OC)C2/C(=[N+](/[O-])O)c3c(cc([N+](=O)[O-])cc3[N+](=O)[O-])C1C2[N+](=O)[O-] (configuration not stated)
inactive: [7] 94 % of control | [8] 105 % of control | [9] 90 % of control

Cc1cc2c3ccccc3nc(C(F)(F)F)n2n1
inactive: endpoint: mean survival time, dose: 100.0 mg/kg/injection, schedule: Q04DX003 (ip), vehicle: saline sonified 96 % of control | endpoint: mean survival time, dose: 200.0 mg/kg/injection, schedule: Q04DX003 (ip), vehicle: saline sonified 100 % of control | endpoint: mean survival time, dose: 400.0 mg/kg/injection, schedule: Q04DX003 (ip), vehicle: saline sonified 100 % of control

Cc1c(C)c2ccccc2[nH]c1=O
inactive: [1] 99 % of control | [2] 96 % of control | [3] 100 % of control

CCCCCCCCCCCCOc1ccc(Cl)cc1
inactive: [7] 90 % of control | [8] 98 % of control | [9] 90 % of control

NC(=O)CSc1ccccc1
inactive: endpoint: mean survival time, dose: 100.0 mg/kg/injection, schedule: Q01DX001 (ip), vehicle: other 101 % of control | endpoint: mean survival time, dose: 200.0 mg/kg/injection, schedule: Q01DX001 (ip), vehicle: other 101 % of control | endpoint: mean survival time, dose: 400.0 mg/kg/injection, schedule: Q01DX001 (ip), vehicle: other 107 % of control

CC1(O)CC2CCC1C2 (configuration not stated)
inactive: [10] 95 % of control | [11] 90 % of control | [12] 87 % of control

CCCCc1c(N)nc(N)nc1N
inactive: endpoint: mean survival time, dose: 18.7 mg/kg/injection, schedule: Q01DX001 (ip), vehicle: saline with Tween-80 104 % of control | endpoint: mean survival time, dose: 37.5 mg/kg/injection, schedule: Q01DX001 (ip), vehicle: saline with Tween-80 100 % of control | endpoint: mean survival time, dose: 75.0 mg/kg/injection, schedule: Q01DX001 (ip), vehicle: saline with Tween-80 109 % of control

CC(C)C1=CC23CCC4C(C)(C(=O)O)CCCC4(C)C2CC1OO3 (configuration not stated)
inactive: [1] 93 % of control | [2] 92 % of control | [3] 95 % of control

COC(=O)C12C=CC(C1)n1c(=O)n(-c3ccccc3)c(=O)n12 (configuration not stated)
inactive: [4] 98 % of control | [5] 104 % of control | [6] 96 % of control

CC[C@@]1(O)C[C@H](OC2CC(N(C)C)C(OC3CC(O)C(O[C@@H]4O[C@@H](C)C(=O)C=C4N)C(C)O3)C(C)O2)c2c(cc3c(c2O)C(=O)c2c(O)ccc(O)c2C3=O)[C@H]1C(=O)OC (some centres not stated)
inactive: endpoint: mean survival time, dose: 0.02 mg/kg/injection, schedule: Q01DX009 (ip), vehicle: suspension in saline 102 % of control | endpoint: mean survival time, dose: 0.05 mg/kg/injection, schedule: Q01DX009 (ip), vehicle: suspension in saline 96 % of control | endpoint: mean survival time, dose: 0.1 mg/kg/injection, schedule: Q01DX009 (ip), vehicle: suspension in saline 103 % of control | endpoint: mean survival time, dose: 0.2 mg/kg/injection, schedule: Q01DX009 (ip), vehicle: suspension in saline 115 % of control | endpoint: mean survival time, dose: 0.4 mg/kg/injection, schedule: Q01DX009 (ip), vehicle: suspension in saline 108 % of control | endpoint: mean survival time, dose: 0.8 mg/kg/injection, schedule: Q01DX009 (ip), vehicle: suspension in saline 123 % of control | endpoint: mean survival time, dose: 1.6 mg/kg/injection, schedule: Q01DX009 (ip), vehicle: suspension in saline 111 % of control

C1=CSC(=C2SC=CS2)S1
inactive: [1] 95 % of control | [2] 102 % of control

COc1ccc(Cc2nc(C)cc3cc(OC)c(OC)cc23)cc1OC
inactive: endpoint: mean survival time, dose: 25.0 mg/kg/injection, schedule: Q01DX009 (ip), vehicle: water 92 % of control

ClC(Cl)(Cl)C(c1ccccc1)c1ccccc1
inactive: endpoint: mean survival time, dose: 50.0 mg/kg/injection, schedule: Q01DX009 (ip), vehicle: Klucel (hydroxypropylcellulose) (HPC) 96 % of control | endpoint: mean survival time, dose: 100.0 mg/kg/injection, schedule: Q01DX009 (ip), vehicle: Klucel (hydroxypropylcellulose) (HPC) 93 % of control | [1] 101 % of control | endpoint: mean survival time, dose: 200.0 mg/kg/injection, schedule: Q01DX009 (ip), vehicle: Klucel (hydroxypropylcellulose) (HPC) 93 % of control | [2] 95 % of control | [3] 90 % of control

[C-]#[N+]C1CCCCC1.[C-]#[N+]C1CCCCC1.[Pd].[S-]c1ccccc1.[S-]c1ccccc1
inactive: endpoint: mean survival time, dose: 3.13 mg/kg/injection, schedule: Q04DX003 (ip), vehicle: distilled water + Tween-80 102 % of control | endpoint: mean survival time, dose: 6.25 mg/kg/injection, schedule: Q04DX003 (ip), vehicle: distilled water + Tween-80 99 % of control | endpoint: mean survival time, dose: 12.5 mg/kg/injection, schedule: Q04DX003 (ip), vehicle: distilled water + Tween-80 89 % of control | endpoint: mean survival time, dose: 25.0 mg/kg/injection, schedule: Q04DX003 (ip), vehicle: distilled water + Tween-80 91 % of control | endpoint: mean survival time, dose: 50.0 mg/kg/injection, schedule: Q04DX003 (ip), vehicle: distilled water + Tween-80 95 % of control | endpoint: mean survival time, dose: 100.0 mg/kg/injection, schedule: Q04DX003 (ip), vehicle: distilled water + Tween-80 89 % of control | endpoint: mean survival time, dose: 200.0 mg/kg/injection, schedule: Q04DX003 (ip), vehicle: distilled water + Tween-80 95 % of control

CC(=O)C1CCOC1=O (configuration not stated)
inactive: [10] 96 % of control | [11] 104 % of control | [12] 98 % of control

O=C1c2cccc(NCCCNCCO)c2C(=O)c2cccc(NCCCNCCO)c21
inactive: endpoint: median survival time, dose: 6.25 mg/kg/injection, schedule: Q01DX009 (ip), vehicle: acid diluted with saline 105 % of control | endpoint: median survival time, dose: 12.5 mg/kg/injection, schedule: Q01DX009 (ip), vehicle: acid diluted with saline 117 % of control | endpoint: median survival time, dose: 25.0 mg/kg/injection, schedule: Q01DX009 (ip), vehicle: acid diluted with saline 116 % of control | endpoint: median survival time, dose: 50.0 mg/kg/injection, schedule: Q01DX009 (ip), vehicle: acid diluted with saline 88 % of control

Nc1ccc(OCc2nc(N)nc(N)c2-c2cccc(Cl)c2)cc1
inactive: endpoint: mean survival time, dose: 100.0 mg/kg/injection, schedule: Q01DX001 (ip), vehicle: saline + alcohol 103 % of control | endpoint: mean survival time, dose: 200.0 mg/kg/injection, schedule: Q01DX001 (ip), vehicle: saline + alcohol 101 % of control | endpoint: mean survival time, dose: 400.0 mg/kg/injection, schedule: Q01DX001 (ip), vehicle: saline + alcohol 106 % of control

COc1ccc2nc(-c3ccc(F)cc3)cc(C(=O)O)c2c1
inactive: [1] 97 % of control | [2] 101 % of control | [3] 101 % of control

O=S1CCCCO1 (configuration not stated)
inactive: endpoint: mean survival time, dose: 75.0 mg/kg/injection, schedule: Q04DX003 (ip), vehicle: saline 95 % of control | endpoint: mean survival time, dose: 150.0 mg/kg/injection, schedule: Q04DX003 (ip), vehicle: saline 101 % of control

CCCCCCCC/C=C\CCCCCCCC(=O)NCCN(CC)CC
inactive: endpoint: mean survival time, dose: 75.0 mg/kg/injection, schedule: Q01DX001 (ip), vehicle: saline 101 % of control | endpoint: mean survival time, dose: 150.0 mg/kg/injection, schedule: Q01DX001 (ip), vehicle: saline 101 % of control

CCCCCCCCCCCC[n+]1ccc(C#N)cc1
inactive: endpoint: mean survival time, dose: 9.38 mg/kg/injection, schedule: Q01DX001 (ip), vehicle: saline 103 % of control | endpoint: mean survival time, dose: 18.75 mg/kg/injection, schedule: Q01DX001 (ip), vehicle: saline 94 % of control

Nc1ccc(C(=O)Nc2ccc(OCc3nc(N)nc(N)c3-c3ccc(Cl)cc3)cc2)cc1
inactive: endpoint: mean survival time, dose: 100.0 mg/kg/injection, schedule: Q01DX001 (ip), vehicle: saline with Tween-80 97 % of control | endpoint: mean survival time, dose: 200.0 mg/kg/injection, schedule: Q01DX001 (ip), vehicle: saline with Tween-80 93 % of control | endpoint: mean survival time, dose: 400.0 mg/kg/injection, schedule: Q01DX001 (ip), vehicle: saline with Tween-80 95 % of control

CNC(=O)Oc1ccc2c(c1)OCO2
inactive: endpoint: mean survival time, dose: 50.0 mg/kg/injection, schedule: Q01DX009 (ip), vehicle: saline 96 % of control | endpoint: mean survival time, dose: 100.0 mg/kg/injection, schedule: Q01DX009 (ip), vehicle: saline 112 % of control | endpoint: mean survival time, dose: 200.0 mg/kg/injection, schedule: Q01DX009 (ip), vehicle: saline 100 % of control
